In patent US20250136570A1 (Tango Therapeutics, Inc., priority 2021, published 2025):

Legend:
Recombinant HDAC1 = Recombinant HDAC1 (Homo sapiens (Human), UniProt Q13547); assay: HDAC1 inhibition, Fluor de Lys fluorescent enzyme assay; format: biochemical; conditions: 3 hours pre-incubation at room temp; 6 nM enzyme; 16 μM Fluor de Lys substrate; duplicate
In short: (§1)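 Enzyme (HDAC1 6 nM, HDAC3/NCor2 1.2 nM final) pre-incubated with compound 3 h at ~22 °C in Tris pH 8 buffer with 0.01% BSA. Reaction run 1 h with 16 μM Fluor de Lys substrate and stopped with TSA-containing developer. Fluorescence read at Ex 360/Em 460; IC50 from an occupancy equation with Hill coefficient, in duplicate.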

HDAC3/NCor2 = HDAC3/NCor2 (Homo sapiens (Human), UniProt O15379); assay: HDAC3 inhibition, Fluor de Lys fluorescent enzyme assay; format: biochemical; conditions: 3 hours pre-incubation at room temp; 1.2 nM enzyme; 16 μM Fluor de Lys substrate; duplicate
In short: as §1

Chain of HDAC3/NCor2 (O15379 whole entry): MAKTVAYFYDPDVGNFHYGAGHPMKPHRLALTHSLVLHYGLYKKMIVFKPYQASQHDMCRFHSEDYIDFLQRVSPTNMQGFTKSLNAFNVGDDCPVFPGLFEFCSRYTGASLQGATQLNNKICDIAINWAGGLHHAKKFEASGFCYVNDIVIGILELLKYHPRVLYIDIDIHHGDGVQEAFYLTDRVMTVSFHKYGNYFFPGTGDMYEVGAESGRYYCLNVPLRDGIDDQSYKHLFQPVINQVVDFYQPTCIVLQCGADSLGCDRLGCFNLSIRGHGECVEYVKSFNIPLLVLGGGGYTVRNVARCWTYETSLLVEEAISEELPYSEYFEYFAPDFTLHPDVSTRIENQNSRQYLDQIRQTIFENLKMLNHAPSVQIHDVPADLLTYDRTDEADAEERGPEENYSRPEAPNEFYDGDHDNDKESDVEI
Chain of HDAC3/NCor2 (Q9Y618 395-489 partner): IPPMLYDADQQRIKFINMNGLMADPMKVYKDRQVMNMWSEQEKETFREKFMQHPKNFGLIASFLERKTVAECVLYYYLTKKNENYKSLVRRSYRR
Chain of Recombinant HDAC1 (Q13547 whole entry): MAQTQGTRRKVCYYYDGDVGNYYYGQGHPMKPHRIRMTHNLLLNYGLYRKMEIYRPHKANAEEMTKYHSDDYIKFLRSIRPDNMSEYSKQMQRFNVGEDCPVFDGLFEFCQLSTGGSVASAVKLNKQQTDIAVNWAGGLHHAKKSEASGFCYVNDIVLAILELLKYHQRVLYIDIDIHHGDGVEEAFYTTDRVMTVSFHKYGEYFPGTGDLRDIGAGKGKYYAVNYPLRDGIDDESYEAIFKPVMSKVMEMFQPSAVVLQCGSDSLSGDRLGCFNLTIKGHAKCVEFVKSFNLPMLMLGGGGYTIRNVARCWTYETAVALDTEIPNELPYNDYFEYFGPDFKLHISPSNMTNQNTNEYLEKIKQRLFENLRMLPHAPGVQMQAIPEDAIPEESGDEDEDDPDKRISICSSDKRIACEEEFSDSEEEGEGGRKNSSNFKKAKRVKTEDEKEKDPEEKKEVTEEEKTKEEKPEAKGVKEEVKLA

Compound | IC50 (Recombinant HDAC1) [nM] | IC50 (HDAC3/NCor2) [nM]
N=[S@](=O)(c1ccc(C(=O)Nc2cc(-c3ccc(F)s3)ccc2N)cc1)C1CC1 (single isomer, unassigned) [Compound 131] | < 100 | 500 to 2000
N=[S@@](=O)(c1ccc(C(=O)Nc2cc(-c3ccc(F)cc3)ccc2N)cc1)C1CC1 (single isomer, unassigned) [Compound 146] | < 100 | 500 to 2000
N=[S@@](=O)(c1ccc(C(=O)Nc2cc(-c3ccc(F)cc3)ccc2N)cc1)c1ccccn1 (single isomer, unassigned) [Compound 212] | < 100 | 500 to 2000
N=S(=O)(c1ccc2sc(C(=O)Nc3cc(-c4ccc(F)cc4)ccc3N)cc2c1)C1CC1 (stereo not drawn) [Compound 224, N-[2-amino-5-(4-fluorophenyl)phenyl]-5-(cyclopropylsulfonimidoyl)benzothiophene-2-carboxamide] | < 100 | 500 to 2000
N=S(=O)(c1ccc(C(=O)Nc2cc(-c3ccc(F)cc3)ccc2N)cc1)c1cccnn1 (stereo not drawn) [Compound 174, N-[2-amino-5-(4-fluorophenyl)phenyl]-4-(pyridazin-3-ylsulfonimidoyl)benzamide] | < 100 | 500 to 2000
C[S@@](=N)(=O)c1ccc(C(=O)Nc2cc(-c3cccs3)ccc2N)cc1 (single isomer, unassigned) [Compound 105] | < 100 | 500 to 2000
CS(=N)(=O)c1ccc(C(=O)Nc2cc(-c3ccc(F)cc3)ccc2O)cc1 (stereo not drawn) [Compound 130, N-[5-(4-fluorophenyl)-2-hydroxy-phenyl]-4-(methylsulfonimidoyl)benzamide] | < 100 | 500 to 2000
N=S(=O)(c1ccc(C(=O)Nc2cc(-c3ccc(F)cc3)ccc2N)cc1)c1cnccn1 (stereo not drawn) [Compound 195, N-[2-amino-5-(4-fluorophenyl)phenyl]-4-(pyrazin-2-ylsulfonimidoyl)benzamide] | < 100 | 500 to 2000
N=S(=O)(c1ccc(F)cc1)c1ccc(C(=O)Nc2cc(-c3ccc(F)cc3)ccc2N)cc1 (stereo not drawn) [Compound 214, N-[2-amino-5-(4-fluorophenyl)phenyl]-4-[(4-fluorophenyl)sulfonimidoyl]benzamide] | < 100 | 500 to 2000
N=S(=O)(c1ccc(C(=O)Nc2cc(-c3ccc(F)cc3)ccc2N)cc1)c1cnccc1C1CC1 (stereo not drawn) [Compound 191, N-[2-amino-5-(4-fluorophenyl)phenyl]-4-[(4-cyclopropyl-3-pyridyl)sulfonimidoyl]benzamide] | < 100 | 500 to 2000
Cc1ncccc1S(=N)(=O)c1ccc(C(=O)Nc2cc(-c3ccc(F)cc3)ccc2N)cc1 (stereo not drawn) [Compound 190, N-[2-amino-5-(4-fluorophenyl)phenyl]-4-[(2-methyl-3-pyridyl)sulfonimidoyl]benzamide] | < 100 | 500 to 2000
CS(=N)(=O)c1ccc(C(=O)Nc2cc(-c3ccc(F)cc3)ccc2N)s1 (stereo not drawn) [Compound 161, N-[2-amino-5-(4-fluorophenyl)phenyl]-5-(methylsulfonimidoyl)thiophene-2-carboxamide] | < 100 | 100 to 500
COCCOCc1ccc(S(=N)(=O)c2ccc(C(=O)Nc3cc(-c4ccc(F)cc4)ccc3N)cc2)cn1 (stereo not drawn) [Compound 246, N-[2-amino-5-(4-fluorophenyl)phenyl]-4-[[6-(2-methoxyethoxymethyl)-3-pyridyl]sulfonimidoyl]benzamide] | < 100 | 500 to 2000
N=S(=O)(c1ccc(C(=O)Nc2cc(-c3ccc(F)cc3)ccc2N)cn1)C1CC1 (stereo not drawn) [Compound 179, N-[2-amino-5-(4-fluorophenyl)phenyl]-6-(cyclopropylsulfonimidoyl)pyridine-3-carboxamide] | < 100 | 500 to 2000
Nc1ccc(-c2ccc(Cl)cc2)cc1NC(=O)c1ccc(S2(=O)=NCCC2)cc1 (stereo not drawn) [Compound 203, N-[2-amino-5-(4-chlorophenyl)phenyl]-4-(1-oxo-4,5-dihydro-3H-isothiazol-1-yl)benzamide] | < 100 | > 2000
CS(=N)(=O)c1ccc(C(=O)Nc2cc(-c3ccc(C(N)=O)s3)ccc2N)cc1 (stereo not drawn) [Compound 176, 5-[4-amino-3-[[4-(methylsulfonimidoyl)benzoyl]amino]phenyl]thiophene-2-carboxamide] | > 2000 | > 2000
Nc1ccc(-c2ccc(F)cc2)cc1NC(=O)c1ccc([S@]2(=O)=NCCC2)cc1 (stereo in doubt) [Compound 184, N-[2-amino-5-(4-fluorophenyl)phenyl]-4-[rel-(1S)-1-oxo-4,5-dihydro-3H-isothiazol-1-yl]benzamide] | < 100 | 500 to 2000
Cc1cncc(S(=N)(=O)c2ccc(C(=O)Nc3cc(-c4ccc(F)cc4)ccc3N)cc2)c1 (stereo not drawn) [Compound 199, N-[2-amino-5-(4-fluorophenyl)phenyl]-4-[(5-methyl-3-pyridyl)sulfonimidoyl]benzamide] | < 100 | 500 to 2000

Compound | IC50 (Recombinant HDAC1) [nM] | IC50 (HDAC3/NCor2) [nM]
CS(=N)(=O)Cc1ccc2oc(C(=O)Nc3cc(-c4ccc(F)cc4)ccc3N)cc2c1 (stereo not drawn) [Compound 170, N-[2-amino-5-(4-fluorophenyl)phenyl]-5-[(methylsulfonimidoyl)methyl]benzofuran-2-carboxamide] | < 100 | 500 to 2000
CS(=N)(=O)c1ccc(C(=O)Nc2cc(-c3cncnc3)ccc2N)cc1 (stereo not drawn) [Compound 151, N-(2-amino-5-pyrimidin-5-yl-phenyl)-4-(methylsulfonimidoyl)benzamide] | > 2000 | > 2000
CS(=N)(=O)c1ccc2sc(C(=O)Nc3cc(-c4ccc(F)cc4)ccc3N)cc2c1 (stereo not drawn) [Compound 173, N-[2-amino-5-(4-fluorophenyl)phenyl]-5-(methylsulfonimidoyl)benzothiophene-2-carboxamide] | < 100 | 500 to 2000
N=S(=O)(c1ccc(C(=O)Nc2cc(-c3ccc(F)cc3)ccc2N)cc1)c1cnccc1O (stereo not drawn) [Compound 227, N-[2-amino-5-(4-fluorophenyl)phenyl]-4-[(4-hydroxy-3-pyridyl)sulfonimidoyl]benzamide] | < 100 | 500 to 2000
CS(=N)(=O)c1cc2cc(C(=O)Nc3cc(-c4ccc(F)cc4)ccc3N)ccc2o1 (stereo not drawn) [Compound 248, N-[2-amino-5-(4-fluorophenyl)phenyl]-2-(methylsulfonimidoyl)benzofuran-5-carboxamide] | < 100 | 500 to 2000
CS(=N)(=O)c1ccc(C(=O)Nc2cc(-c3ccncc3)ccc2N)cc1 (stereo not drawn) [Compound 108, N-[2-amino-5-(4-pyridyl)phenyl]-4-(methylsulfonimidoyl)benzamide] | < 100 | > 2000
N=[S@@](=O)(c1ccc(C(=O)Nc2cc(-c3cccs3)ccc2N)cc1)C1CC1 (single isomer, unassigned) [Compound 115] | < 100 | 500 to 2000
CCN=S(C)(=O)c1ccc(C(=O)Nc2cc(-c3ccc(F)cc3)ccc2N)cn1 (stereo not drawn) [Compound 169, N-[2-amino-5-(4-fluorophenyl)phenyl]-6-(N-ethyl-S-methyl-sulfonimidoyl)pyridine-3-carboxamide] | < 100 | 500 to 2000
CS(=N)(=O)c1ccc(C(=O)Nc2cc(-c3cccs3)ccc2N)nn1 (stereo not drawn) [Compound 124, N-[2-amino-5-(2-thienyl)phenyl]-6-(methylsulfonimidoyl)pyridazine-3-carboxamide] | < 100 | 100 to 500
COCCOCc1cncc(S(=N)(=O)c2ccc(C(=O)Nc3cc(-c4ccc(F)cc4)ccc3N)cc2)c1 (stereo not drawn) [Compound 193, N-[2-amino-5-(4-fluorophenyl)phenyl]-4-[[5-(2-methoxyethoxymethyl)-3-pyridyl]sulfonimidoyl]benzamide] | < 100 | > 2000
Nc1ccc(-c2ccc(F)cc2)cc1NC(=O)c1ccc([S@@]2(=O)=NCCC2)cc1 (stereo in doubt) [Compound 185, N-[2-amino-5-(4-fluorophenyl)phenyl]-4-[rel-(1R)-1-oxo-4,5-dihydro-3H-isothiazol-1-yl]benzamide] | < 100 | 500 to 2000
N=S(=O)(c1ccccc1)c1ccc(C(=O)Nc2cc(-c3cccs3)ccc2N)cc1 (stereo not drawn) [Compound 102, N-[2-amino-5-(2-thienyl)phenyl]-4-(phenylsulfonimidoyl)benzamide] | < 100 | 500 to 2000
N=S(=O)(c1ccccn1)c1ccc(C(=O)Nc2cc(-c3ccc(F)cc3)ccc2N)cn1 (stereo not drawn) [Compound 175, N-[2-amino-5-(4-fluorophenyl)phenyl]-6-(2-pyridylsulfonimidoyl)pyridine-3-carboxamide] | < 100 | 500 to 2000
CS(=N)(=O)Cc1ccc(C(=O)Nc2cc(-c3cccs3)ccc2N)cc1 (stereo not drawn) [Compound 128, N-[2-amino-5-(2-thienyl)phenyl]-4-[(methylsulfonimidoyl)methyl]benzamide] | < 100 | 500 to 2000
CS(=N)(=O)c1ccc(C(=O)Nc2cc(-c3cccc(C(N)=O)c3)ccc2N)cc1 (stereo not drawn) [Compound 180, 3-[4-amino-3-[[4-(methylsulfonimidoyl)benzoyl]amino]phenyl]benzamide] | < 100 | > 2000
Nc1ccc(-c2ccc(F)cc2)cc1NC(=O)c1cc2cc(S3(=O)=NCCC3)ccc2o1 (stereo not drawn) [Compound 210] | < 100 | 500 to 2000
COc1ccncc1S(=N)(=O)c1ccc(C(=O)Nc2cc(-c3ccc(F)cc3)ccc2N)cc1 (stereo not drawn) [Compound 240, N-[2-amino-5-(4-fluorophenyl)phenyl]-4-[(4-methoxy-3-pyridyl)sulfonimidoyl]benzamide] | < 100 | 500 to 2000
CC(=O)c1ccc(-c2ccc(N)c(NC(=O)c3ccc(S(C)(=N)=O)cc3)c2)s1 (stereo not drawn) [Compound 241, N-[5-(5-acetyl-2-thienyl)-2-amino-phenyl]-4-(methylsulfonimidoyl)benzamide] | > 2000 | > 2000
